According to paper PMC10579241, “Impact of trifluoromethyl and sulfonyl groups on the biological activity of novel aryl-urea derivatives: synthesis, in-vitro, in-silico and SAR studies” (Scientific Reports, 2023):
Values after ≈ are worked out from the molar mass of the structure shown. Read-outs that look alike come from different tables or passages of the source. Marks after values point to notes of the source that are not given here.

Columns and labels:
skin cancer (A431) = assay: cells; format: cell-based; conditions: Homo sapiens, A-431, 100 μg/mL, 48 h
Escherichia coli [1] = assay: Agar well diffusion, E. coli; format: cell-based; conditions: Escherichia coli, read-out: Inhibition zones diameter
KRAS = assay: qRT-PCR, KRAS in A549 cells; format: cell-based, human; conditions: versus negative samples
Bacillus mycoides [2] = assay: microbe, parasite or virus in culture; format: cell-based
[3] = test system: hepatocellular carcinoma cell line (HePG2); assay: cells; format: cell-based; conditions: Homo sapiens, 48 h
Candida albicans [4] = assay: Agar well diffusion, C. albicans; format: cell-based
Candida albicans [5] = assay: MIC by serial dilution (agar wells), C. albicans; format: cell-based
[6] = test system: human lung carcinoma (A549); assay: cells; format: cell-based
A549 [7] = assay: DNA fragmentation assay, A549; format: cell-based, human
EGFR = assay: qRT-PCR, EGFR in A549 cells; format: cell-based, human; conditions: versus negative samples
A549 [8] = assay: DNA damage, comet assay, A549; format: cell-based, human
in vitro = format: cell-based; conditions: human, BJ1 normal skin fibroblast cells, 100 μg/mL
[9] = test system: osteosarcoma cell line (HOS); assay: cells; format: cell-based; conditions: Homo sapiens, 48 h, 100 μg/mL
colon cancer (HCT116) = assay: cells; format: cell-based; conditions: Homo sapiens
Bacillus mycoides [10] = assay: microbe, parasite or virus in culture; format: cell-based; remark: listed apart in the source
prostate cancer (PC3) = assay: cells; format: cell-based; conditions: Homo sapiens, 48 h
[11] = test system: pancreatic cancer cell line (PACA2); assay: cells; format: cell-based; conditions: Homo sapiens, PaCa-2, 48 h
Escherichia coli [12] = assay: MIC by serial dilution (agar wells), E. coli; format: cell-based
[13] = 0.00488 mg/mL, 150 µL in DMSO, 15 mm agar well
[14] = 0.00975 mg/mL, 150 µL in DMSO, 15 mm agar well
[15] = 0.0195 mg/mL, 150 µL in DMSO, 15 mm agar well
[16] = 0.0391 mg/mL, 150 µL in DMSO, 15 mm agar well
[17] = 0.0781 mg/mL, 150 µL in DMSO, 15 mm agar well
[18] = 0.1563 mg/mL, 150 µL in DMSO, 15 mm agar well
[19] = 0.3125 mg/mL, 150 µL in DMSO, 15 mm agar well
[20] = 0.625 mg/mL, 150 µL in DMSO, 15 mm agar well
[21] = 1.25 mg/mL, 150 µL in DMSO, 15 mm agar well
[22] = 2.50 mg/mL, 150 µL in DMSO, 15 mm agar well
[23] = 5.00 mg/mL, 150 µL in DMSO, 15 mm agar well
[24] = 10.0 mg/mL, 150 µL in DMSO, 15 mm agar well
[25] = read-out: Minimum inhibition concentration (MIC)

SMILES: Cc1ccc(S(=O)(=O)NC(=O)Nc2ccc(OC(F)(F)F)cc2)cc1 [Compound 8, 4-Methyl-N-[(4-{trifluoromethoxy}phenyl)carbamoyl]benzenesulfonamide]
- mortality at 100 µg/mL (skin cancer (A431)): 27.5 ± 0.64%
- zone of inhibition at 10000 µg/mL (Escherichia coli [1]): 29 ± 0.44 mm
- KRAS gene expression level (KRAS): significant reduction
- Inhibition zones diameter (Bacillus mycoides [2]; B. mycoides, 200 μL of 10 mg/mL in DMSO in 15 mm holes, overnight 37 °C): 37 ± 0.23 mm
- zone of inhibition at 10000 µg/mL (Bacillus mycoides [2]; Bacillus mycoides, read-out: Inhibition zones diameter): 37 mm
- mortality at 100 µg/mL ([3]; 100 μg/mL): 100%
- IC50 ([3]; MTT): 74 ± 0.29 µM
- Inhibition zones diameter (Candida albicans [4]; C. albicans, 200 μL of 10 mg/mL in DMSO in 15 mm holes, overnight 37 °C): 38 ± 0.67 mm
- zone of inhibition at 10000 µg/mL (Candida albicans [4]; Candida albicans, read-out: Inhibition zones diameter): 38 mm
- zone of inhibition at 4.88 µg/mL (Candida albicans [5]; [13]): 16 mm
- zone of inhibition at 9.75 µg/mL (Candida albicans [5]; [14]): 17 mm
- zone of inhibition at 19.5 µg/mL (Candida albicans [5]; [15]): 17 mm
- zone of inhibition at 39.1 µg/mL (Candida albicans [5]; [16]): 17 mm
- zone of inhibition at 78.1 µg/mL (Candida albicans [5]; [17]): 18 mm
- zone of inhibition at 156.3 µg/mL (Candida albicans [5]; [18]): 23 mm
- zone of inhibition at 312.5 µg/mL (Candida albicans [5]; [19]): 25 mm
- zone of inhibition at 625 µg/mL (Candida albicans [5]; [20]): 27 mm
- zone of inhibition at 1250 µg/mL (Candida albicans [5]; [21]): 28 mm
- zone of inhibition at 2500 µg/mL (Candida albicans [5]; [22]): 30 mm
- zone of inhibition at 5000 µg/mL (Candida albicans [5]; [23]): 32 mm
- zone of inhibition at 10000 µg/mL (Candida albicans [5]; [24]): 34 mm
- MIC (Candida albicans [5]; [25]): 4.88 µg/mL (≈ 13 µM)
- mortality at 100 µg/mL ([6]; A549, 48 h, 100 μg/mL): 100%
- IC50 ([6]; MTT, 48 h): 55.8 ± 0.11 µM
- Change (DNA fragmentation versus untreated cells) (A549 [7]): 22.8
- DNA fragmentation % M ± SEM (A549 [7]; IC50 concentration, 24 h): 34.2 ± 0.57^a %
- Inhibition (A549 [7]; doxorubicin = 0.0): 16.92
- EGFR gene expression level (EGFR): significant reduction
- DNA damaged cells % (mean ± SEM) (A549 [8]): 24.75 ± 1.03^a %
- Class 0 (no tail), number of cells (A549 [8]; of 400 cells analyzed): 301
- Class 1 (tail length < diameter of nucleus), number of cells (A549 [8]; of 400 cells analyzed): 39
- Class 2 (tail length between 1 and 2 × the diameter of nucleus), number of cells (A549 [8]; of 400 cells analyzed): 38
- Class 3 (tail length > 2 × the diameter of nucleus), number of cells (A549 [8]; of 400 cells analyzed): 22
- No. of cells, Comets (A549 [8]; of 400 cells analyzed): 99
- mortality at 48 h, 100 µg/mL (in vitro): 6.2 ± 1.54%
- mortality at 100 µg/mL [9]: > 50%
- mortality at 100 µg/mL (colon cancer (HCT116); HCT-116, 48 h, 100 μg/mL): 100%
- IC50 (colon cancer (HCT116); HCT-116, MTT, 48 h): 47.3 ± 0.91 µM
- zone of inhibition at 4.88 µg/mL (Bacillus mycoides [10]; read-out: Inhibition zone): 17 mm
- zone of inhibition at 9.75 µg/mL (Bacillus mycoides [10]; read-out: Inhibition zone): 17 mm
- zone of inhibition at 19.5 µg/mL (Bacillus mycoides [10]; read-out: Inhibition zone): 17 mm
- zone of inhibition at 39.1 µg/mL (Bacillus mycoides [10]; read-out: Inhibition zone): 17 mm
- zone of inhibition at 78.1 µg/mL (Bacillus mycoides [10]; read-out: Inhibition zone): 17 mm
- zone of inhibition at 156.3 µg/mL (Bacillus mycoides [10]; read-out: Inhibition zone): 17 mm
- zone of inhibition at 312.5 µg/mL (Bacillus mycoides [10]; read-out: Inhibition zone): 20 mm
- zone of inhibition at 625 µg/mL (Bacillus mycoides [10]; read-out: Inhibition zone): 23 mm
- zone of inhibition at 1250 µg/mL (Bacillus mycoides [10]; read-out: Inhibition zone): 26 mm
- zone of inhibition at 2500 µg/mL (Bacillus mycoides [10]; read-out: Inhibition zone): 27 mm
- zone of inhibition at 5000 µg/mL (Bacillus mycoides [10]; read-out: Inhibition zone): 27 mm
- zone of inhibition at 10000 µg/mL (Bacillus mycoides [10]; read-out: Inhibition zone): 32 mm
- MIC (Bacillus mycoides [10]; [25]): 4.88 µg/mL (≈ 13 µM)
- mortality at 100 µg/mL (prostate cancer (PC3); 100 μg/mL): 100%
- IC50 (prostate cancer (PC3); MTT): 57.2 ± 0.39 µM
- mortality at 100 µg/mL ([11]; 100 μg/mL): 100%
- IC50 ([11]; MTT): 22.4 ± 0.49 µM
- zone of inhibition at 4.88 µg/mL (Escherichia coli [12]; [13]): 16 mm
- zone of inhibition at 9.75 µg/mL (Escherichia coli [12]; [14]): 17 mm
- zone of inhibition at 19.5 µg/mL (Escherichia coli [12]; [15]): 17 mm
- zone of inhibition at 39.1 µg/mL (Escherichia coli [12]; [16]): 18 mm
- zone of inhibition at 78.1 µg/mL (Escherichia coli [12]; [17]): 18 mm
- zone of inhibition at 156.3 µg/mL (Escherichia coli [12]; [18]): 19 mm
- zone of inhibition at 312.5 µg/mL (Escherichia coli [12]; [19]): 23 mm
- zone of inhibition at 625 µg/mL (Escherichia coli [12]; [20]): 25 mm
- zone of inhibition at 1250 µg/mL (Escherichia coli [12]; [21]): 27 mm
- zone of inhibition at 2500 µg/mL (Escherichia coli [12]; [22]): 28 mm
- zone of inhibition at 5000 µg/mL (Escherichia coli [12]; [23]): 29 mm
- zone of inhibition at 10000 µg/mL (Escherichia coli [12]; [24]): 32 mm
- MIC (Escherichia coli [12]; [25]): 4.88 µg/mL (≈ 13 µM)
